One series addresses T1, rat pituitary receptors (Rattus norvegicus, UniProt P30969).
T1 construct: from tissue; host or cells: rat pituitary
T1 sequence (P30969 1-327): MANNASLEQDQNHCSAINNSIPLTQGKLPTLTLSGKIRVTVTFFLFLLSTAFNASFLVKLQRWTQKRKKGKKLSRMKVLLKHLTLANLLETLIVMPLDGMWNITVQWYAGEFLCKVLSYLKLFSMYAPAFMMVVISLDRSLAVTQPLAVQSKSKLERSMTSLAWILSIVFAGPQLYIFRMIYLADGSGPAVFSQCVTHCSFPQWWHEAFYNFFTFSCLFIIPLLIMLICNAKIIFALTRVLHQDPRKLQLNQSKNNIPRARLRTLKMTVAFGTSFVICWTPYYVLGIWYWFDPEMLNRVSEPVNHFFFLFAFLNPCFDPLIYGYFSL
Kind of series: Receptor binding potency, rat pituitary receptors.

Series [1] concerns estrogen independent MXT mouse mammary cancers. Kind of series: Single treatment of estrogen independent MXT mouse mammary cancers (KS-55). The class given is in vivo. Particulars: single dose of 650 nmol/20 g mouse (as printed in text). The protocol:
In order to determine the maximum tolerated doses and compare the effects, MXT (3.2) ovex tumor pieces (1 mm^3) were implanted s.c. in female B6 D2 F1 mice. One day after transplantation the mice were randomly divided into groups of five animals and they were treated with a single injection i.p. The groups and doses are shown in the Table 25-1. […] The compounds were dissolved in 0.1% TFA (pH: 2.0). Tumor volume was measured on days 10, 13, 17, and 20.

Another series concerns the target T2, breast cancer receptors (Homo sapiens, UniProt P30968).
T2 construct: from tissue
T2 sequence (P30968 1-328): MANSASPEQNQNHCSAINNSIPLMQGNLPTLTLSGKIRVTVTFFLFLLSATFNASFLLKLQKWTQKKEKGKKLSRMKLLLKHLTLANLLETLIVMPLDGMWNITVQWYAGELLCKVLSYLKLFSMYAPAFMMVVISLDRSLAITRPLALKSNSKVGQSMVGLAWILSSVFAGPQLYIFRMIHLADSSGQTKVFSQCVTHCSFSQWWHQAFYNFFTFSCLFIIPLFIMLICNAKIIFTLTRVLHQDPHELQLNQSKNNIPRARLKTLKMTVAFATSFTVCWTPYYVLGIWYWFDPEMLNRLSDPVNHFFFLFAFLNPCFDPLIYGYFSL
Kind of series: Receptor binding potency, breast cancer receptors.

Series [2] concerns the target T3, bombesin receptors on Swiss 3T3 cell line (Mus musculus, UniProt P21729).
T3 construct: host or cells: Swiss 3T3 cells
Kind of series: Displacement of [125I-Tyr4]BN binding on Swiss 3T3 cells. The procedure:
Radio iodination of [Tyr^4 ]BN (Sigma) using a Bio-Rad Enzymobead Radio lodination kit and isolation of mono-iodinated [^125 l-Tyr^4 ]BN was performed as described earlier (1). […] Three to five days after seeding, the confluent cells were washed twice with Hanks' Balanced Salt Solution (HBSS) and incubated for 30 min at 37° C. with 50 pM [^125 l-Tyr^4 ]BN in the absence or presence of several concentrations of unlabeled competitors (Q6^14 gB or BN) in a total volume of 0.5 ml binding buffer (DMEM with 50 mM HEPES, 0.1% bovine serum albumin (BSA), 5 mM MgCl2 and 100 μg/ml bacitracin, pH: 7.4). Nonspecific binding was determined in the presence of 1 μM unlabeled ligand. After three washings with ice-cold HBSS containing 0.1% BSA (pH: 7.4) the cells were detached with 0.05% Trypsin/0.53 mM EDTA solution and transferred to tubes. Radioactivity was measured with a gamma-counter (Micromedic Systems Inc, Huntsville, Ala.). Binding data were evaluated using radio ligand binding analysis programs by McPherson (4). Ki values presented in Table 23-1, were calculated according to the formula of Cheng and Prusoff (5).
On the technique in general: Loss of bound radioactivity is the signal in a displacement assay; it reports binding, not function.

Another series deals with LH-responses. In words: Hormonal activity of LH-RH analogs (LH-responses rel. to LH-RH). Format: cell-based. Conditions: relative to LH-RH = 1.
Series [3] relates to estrogen independent MXT mouse mammary cancers. In words: Effect of cytotoxic LH-RH analogs on estrogen independent MXT mouse mammary cancers (KS-47). The class given is in vivo. Particulars: daily dose of 30 nmol (equimolar) i.p. for 12 days. The procedure: MXT (3.2) ovex tumor pieces (1 mm^3) were transplanted in female B6 D2 F1 mice. The treatment started one day after transplantation and was continued for 12 days by i.p. injections once a day. Tumors were measured on days 10, 14 and 18, and tumor volume was calculated.

The values that follow come from patent publication US6184374A, “Targeted cytotoxic anthracycline analogs” (priority 1998, dated 2001).

T3 sequence (P21729 whole entry): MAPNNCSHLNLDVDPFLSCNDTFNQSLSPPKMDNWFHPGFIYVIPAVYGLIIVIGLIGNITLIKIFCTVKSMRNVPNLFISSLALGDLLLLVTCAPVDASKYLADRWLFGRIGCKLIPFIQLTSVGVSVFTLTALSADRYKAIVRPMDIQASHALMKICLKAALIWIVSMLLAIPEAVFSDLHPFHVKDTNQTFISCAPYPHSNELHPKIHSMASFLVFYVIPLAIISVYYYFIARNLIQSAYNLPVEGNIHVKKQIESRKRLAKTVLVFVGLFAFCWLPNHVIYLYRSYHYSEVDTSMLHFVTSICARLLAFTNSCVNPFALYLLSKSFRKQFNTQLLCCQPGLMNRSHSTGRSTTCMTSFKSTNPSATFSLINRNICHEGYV

In the case of `COc1cccc2c1C(=O)c1c(O)c3c(c(O)c1C2=O)C[C@@](O)(C(=O)COC(=O)CCCC(=O)NCCCC[C@@H](NC(=O)[C@H](Cc1ccc(O)cc1)NC(=O)[C@H](CO)NC(=O)[C@H](Cc1c[nH]c2ccccc12)NC(=O)[C@H](Cc1c[nH]cn1)NC(=O)[C@@H]1CCC(=O)N1)C(=O)N[C@@H](CC(C)C)C(=O)N[C@@H](CCCNC(=N)N)C(=O)N1CCC[C@H]1C(=O)NCC(N)=O)C[C@@H]3O[C@H]1C[C@H](N)[C@H](O)[C@H](C)O1` [Q1^14 gL, [D-Lys^6 (DOX^14 -O-glt)]LH-RH], the IC50 – broadly, the midpoint of a concentration-inhibition curve – came to 2.29 nM on rat pituitary receptors and 7.24 nM on breast cancer receptors. For the same molecule, the Toxicity result in series [1] is on record as “nontoxic”.
Turning to `COc1cccc2c1C(=O)c1c(O)c3c(c(O)c1C2=O)C[C@@](O)(C(=O)COC(=O)CCCC(=O)N[C@@H](CCC(N)=O)C(=O)N[C@@H](Cc1c[nH]c2ccccc12)C(=O)N[C@@H](C)C(=O)N[C@H](C(=O)NCC(=O)N[C@@H](Cc1c[nH]cn1)C(=O)N[C@H](CN[C@@H](CC(C)C)C(N)=O)CC(C)C)C(C)C)C[C@@H]3O[C@H]1C[C@H](N2C=CCC2)[C@H](O)[C@H](C)O1` [Q6^14 gB, 2-pyrrolino-DOX^14 -O-glt-Gln-Trp-Ala-Val-Gly-His-Leu.PSI.(CH2 --NH)Leu-NH2], in series [2], the Ki (usually a measure of affinity in units of concentration, obtained from inhibition or displacement) came out at 1 nM.
With `COc1cccc2c1C(=O)c1c(O)c3c(c(O)c1C2=O)C[C@@](O)(C(=O)COC(=O)CCCC(=O)NCCCC[C@@H](NC(=O)[C@H](Cc1ccc(O)cc1)NC(=O)[C@H](CO)NC(=O)[C@H](Cc1c[nH]c2ccccc12)NC(=O)[C@H](Cc1c[nH]cn1)NC(=O)[C@@H]1CCC(=O)N1)C(=O)N[C@@H](CC(C)C)C(=O)N[C@@H](CCCNC(=N)N)C(=O)N1CCC[C@H]1C(=O)NCC(N)=O)C[C@@H]3O[C@H]1C[C@H](N2C=CCC2)[C@H](O)[C@H](C)O1` [Q6^14 gL, [D-Lys^6 (2-pyrrolino-DOX^14 -O-glt)]LH-RH], the IC50 at rat pituitary receptors was 5.59 nM; at breast cancer receptors, 6.7 nM.
Turning to `CC(C)C[C@H](NC(=O)[C@@H](CCCCN)NC(=O)[C@H](Cc1ccc(O)cc1)NC(=O)[C@H](CO)NC(=O)[C@H](Cc1c[nH]c2ccccc12)NC(=O)[C@H](Cc1c[nH]cn1)NC(=O)[C@@H]1CCC(=O)N1)C(=O)N[C@@H](CCCNC(=N)N)C(=O)N1CCC[C@H]1C(=O)NCC(N)=O` [[D-Lys^6]LH-RH], the “Hormonal activity (LH-responses rel. to LH-RH = 1)” value with LH-responses amounted to 8. The molecule also registered an IC50 at breast cancer receptors of 1.8 nM. In series [3], the “Effect on tumor growth” value was “did not affect tumor growth”, the “Mean survival after transplantation” value came out at 23.5 days, the “Mean tumor volume on day 10” value is listed as 165 mm^3 and the “Mean tumor volume on day 14” value is 1348 mm^3. In series [3], the “Mean tumor volume on day 18” value worked out at 4003 mm^3.
